Legend:
[1] = biological target: T1, NCS-1/Ric8a complex (Homo sapiens, UniProt P62166); assay: In situ proximity ligation assay (PLA) of NCS-1 binding to Ric8a in HEK293 cells; assay type: cell-based; details: FD44 20 μM
T1 construct: expressed in transfected cells; host or cells: HEK293
Procedure: Human embryonic kidney HEK293 cells were grown in Dulbecco's modified Eagle's medium supplemented with 2 mM L-glutamine, 100 U/ml penicillin/streptomycin, MEM non-essential amino acid solution (1/100), and 5% (v/v), and heat-inactivated fetal bovine serum (all from Thermo). The human NCS-1 and Ric8a-V5 constructs were previously generated (Mansilla et al., [2017]). Plasmids were co-transfected onto HEK293 using Lipofectamin 2000 (Thermo) following the manufacturer's instructions. Approximately 20 μM of FD44 diluted in dimethyl sulfoxide (DMSO) or the same volume of DMSO was added to culture cells 24 h after transfection.
For the in situ proximity ligation assay (PLA), cells were grown in coverslips and, after transfection and treatment, fixed for 20 min with a fixation reagent, and later permeabilized with a permeabilization reagent, all from the Intracellular Fixation and Permeabilization buffer set (eBioscience, Thermo). […] Finally, interactions were detected with Duolink in Situ PLA Green Detection kit (Sigma) following the manufacturer's instructions. Cover slips were mounted with ProLong reagent (Thermo) containing Hoescht, and staining was analyzed with a standard fluorescence microscope.
To better quantify the interaction, PLA was performed followed by flow cytometry. […] Cells were analyzed on FACS Canto II (BD Bioscience) with BD FACS Diva software.

[2] = Pharmacokinetic profile, plasma and brain, single dose in BALB/c WT mice; assay type: in vivo; details: mouse
Procedure: The pharmacokinetic (PK) assay was performed by Sai Life Sciences Ltd. in BALB/c WT mice aged 8–12-months.
(§1) FD44 solution formulation in 5% NMP, 5% Solutol HS-15, 30% PEG-400, and 60% citric acid (10 mM) was administered in doses of 10 and 50 mg/kg dose intraperitoneally and orally, respectively. A single dose was administered to 8–12-month-old mice for PK and a daily intraperitoneal dose to 2-month-old mice for 4 weeks for further behavioral and biochemical studies. […] PK was performed in collaboration with Sai life Science Ltd. Blood samples were collected from retro-orbital plexus into ethylenediamine tetraacetic acid (EDTA) tubes from a set of three mice at each time point. Plasma was immediately harvested from the blood by centrifugation at 2,500 g for 10 min at 4°C. Immediately after collection of blood, brain samples were collected and homogenized using ice-cold phosphate buffer saline. Concentrations of FD44 in mouse plasma and brain samples were determined by the fit-for-purpose liquid chromatography with tandem mass spectrometry (LC-MS/MS) method. PK parameters were calculated using the non-compartmental analysis tool of Phoenix WinNonlin® (Version 7.0). Areas under the concentration time curve (AUClast and AUCinf) were calculated using a linear trapezoidal rule.

[3] = system: D. melanogaster FMRP mutants; details: Drosophila melanogaster FXS model (FMRP mutants or fmr1 RNAi strain), FD44 in the food; ref Mansilla et al., 2017; cited from earlier work
[4] = system: Fmr1 KO2 mice; assay: Aggression test (latency between attacks) in Fmr1 KO2 mice; assay type: in vivo, mouse; details: 10 mg/kg IP daily for 4 weeks
Procedure: as §1, with “Immediately after collection of blood, brain samples were collected and homogenized using ice-cold phosphate buffer saline.” left out
(§2) Stereotype was evaluated by self-grooming. For this, mice were placed individually in a cage, after a 5-min habituation period, the time spent to grooming any part of the body was recorded for 3 min. […] The latency between attacks was measured for 3 min.

[5] = system: Fmr1 KO2 mice; assay: Self-grooming (stereotype) in Fmr1 KO2 mice; assay type: in vivo, mouse; details: 10 mg/kg IP daily for 4 weeks
Procedure: as §1, with “Immediately after collection of blood, brain samples were collected and homogenized using ice-cold phosphate buffer saline.” left out
as §2

[6] = system: NCS-1/Ric8a complex; design: method as in Mansilla et al., 2017; details: cell lysate; ref Mansilla et al., 2017; cited from earlier work
[7] = system: Fmr1 KO2 mice; assay: Open field test (hyperactivity) in Fmr1 KO2 mice; assay type: in vivo, mouse; details: 10 mg/kg IP daily for 4 weeks
Procedure: as §1, with “Immediately after collection of blood, brain samples were collected and homogenized using ice-cold phosphate buffer saline.” left out
(§3) Tests were conducted at the end of the treatment, that is, 4th week, and mice were tested on one behavioral task a day. […] Activity was monitored by IR beam breaks and decoded using VersaDat software (AccuScan). […] The distance traveled for 30 min was measured in centimeter for all cases.

[8] = system: Fmr1 KO mice; assay: Three-chamber social test in Fmr1 KO mice; assay type: in vivo, mouse; details: 10 mg/kg IP for 4 weeks
Procedure: as §1
The three-chamber test assesses cognition in the form of interest in social novelty. Testing occurs in a three-chambered box with openings between the chambers. […] The time spent in each chamber is quantified for 6 min.

[9] = design: method as in Mansilla et al., 2017; details: among compounds previously identified as NCS-1/Ric8a inhibitors; ref Mansilla et al., 2017; cited from earlier work
[10] = system: Fmr1 KO, Fmr1 KO2, and WT mice; assay: Tolerability on treatment of mice; assay type: in vivo; details: 10 mg/kg IP / 50 mg/kg PO
Procedure: as §1

[11] = system: D1R; design: method as in Mansilla et al., 2017; details: ref Mansilla et al., 2017; cited from earlier work
[12] = system: DA metabolism; assay: DA levels and DA metabolic profile (HPLC) in brain areas of Fmr1 KO mice; assay type: in vivo, mouse; details: FD44 IP for 4 weeks
Procedure: as §1, with “Immediately after collection of blood, brain samples were collected and homogenized using ice-cold phosphate buffer saline.” left out, “rule. […]” for “rule.”
Tissue samples were preserved at −80°C until analysis. […] DA and its metabolites were measured from supernatants by HPLC with an ESA Coulochem detector, according to Mena et al. ([1993]). […] Monoamine levels were identified by their retention time, and amounts were calculated against calibrated external standard solutions. […]

[13] = system: Fmr1 KO mice; assay: Open field test (hyperactivity) in Fmr1 KO mice; assay type: in vivo, mouse; details: 10 mg/kg IP for 4 weeks
Procedure: as §1, with “Immediately after collection of blood, brain samples were collected and homogenized using ice-cold phosphate buffer saline.” left out
as §3

[14] = system: D2R; design: method as in Mansilla et al., 2017; details: ref Mansilla et al., 2017; cited from earlier work
[15] = system: Fmr1 KO2 mice; assay: Fear conditioning (associative learning) in Fmr1 KO2 mice; assay type: in vivo, mouse; details: 10 mg/kg IP daily for 4 weeks
Procedure: as §1
Associative learning of an aversive sound followed by an electrical shock was used to analyze fear conditioning. […] Memory was tested 24 h after training, and freezing time was recorded for 5 min.

[16] = system: neuronal cultures; design: method as in Mansilla et al., 2017; details: ref Mansilla et al., 2017; cited from earlier work

T1 sequence (P62166 2-190 limits assumed, one chain of several): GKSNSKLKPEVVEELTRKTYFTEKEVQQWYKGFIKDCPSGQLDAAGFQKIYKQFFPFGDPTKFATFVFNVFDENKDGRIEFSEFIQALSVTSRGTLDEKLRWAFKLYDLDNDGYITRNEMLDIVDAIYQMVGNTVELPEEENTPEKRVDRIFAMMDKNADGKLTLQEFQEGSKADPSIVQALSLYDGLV

Which results are given for O=C(CN1CCCCC1)NN1c2ccccc2Sc2ccccc21 [FD44]?
intensity and number of green fluorescence spots representing the NCS-1/Ric8a binding (PLA, microscopy) ([1]; HEK293 co-transfected with NCS-1 and Ric8a-V5, 24 h): reduced; reduction in binding (PLA followed by flow cytometry, mean fluorescence intensity) ([1]; HEK293 co-transfected with human NCS-1 and Ric8a-V5, last 24 h, four independent experiments): 40%; Cmax ([2]; IP, 10 mg/kg single dose, brain): 2.56016 µg/mL; Tmax ([2]; IP, 10 mg/kg single dose, brain, 10 mg/kg): 15 min; Brain-to-plasma ratio ([2]; IP, 10 mg/kg single dose): 2.48–7.65; time up to which brain concentrations were quantifiable ([2]; IP, 10 mg/kg single dose): up to 480 min; time up to which plasma concentrations were quantifiable ([2]; IP, 10 mg/kg single dose): up to 480 min; Cmax ([2]; IP, 10 mg/kg single dose, plasma): 0.98119 µg/mL; Tmax ([2]; IP, 10 mg/kg single dose, plasma, 10 mg/kg): 5 min; Cmax ([2]; PO, 50 mg/kg single dose, brain): 5.16438 µg/mL; Tmax ([2]; PO, 50 mg/kg single dose, brain, 50 mg/kg): 15 min; Brain-to-plasma ratio ([2]; PO, 50 mg/kg single dose): 2.90 to 6.81; time up to which brain concentrations were quantifiable ([2]; PO, 50 mg/kg single dose): up to 480 min; time up to which plasma concentrations were quantifiable ([2]; PO, 50 mg/kg single dose): up to 480 min; Cmax ([2]; PO, 50 mg/kg single dose, plasma): 0.8589 µg/mL; Tmax ([2]; PO, 50 mg/kg single dose, plasma, 50 mg/kg): 15 min; blood–brain barrier crossing ([2]; IP and PO PK study): perfectly crosses the blood–brain barrier; associative learning [3]: restored; synapse number [3]: restored; aggression, latency between attacks [4]: low level of aggressiveness similar to their WT counterparts; stereotype, self-grooming [5]: restored; inhibitory effect in a binding assay in vitro (co-immunoprecipitation) [6]: almost total inhibitory effect; hyperactivity, distance traveled in the open field [7]: complete recovery; social interest, time in chamber with unfamiliar vs familiar mouse (three-chamber test) [8]: able to restore the impaired social interest; solubility profile [9]: best solubility profile; tolerability, clinical signs [10]: well tolerated; interaction with dopamine receptor D1R [11]: does not interact; DA metabolism ratio (metabolites HVA + DOPAC/DA) increase in the limbic area [12]: reversed; hyperactivity, distance traveled in the open field [13]: normalizes; interaction with dopamine receptor D2R [14]: does not interact; associative learning, freezing response after fear conditioning [15]: completely rescued impaired associative learning; toxicity in neuronal cultures [16]: low toxicity

— paper PMC9709425, “The inhibition of NCS-1 binding to Ric8a rescues fragile X syndrome mice model phenotypes” (Frontiers in Neuroscience, 2022)
